Reference: patent US20190330224A1, “ACC INHIBITORS AND USES THEREOF” (Gilead Apollo, LLC, priority 2015, published 2019)
Converted amounts (≈) assume the structure as drawn.

Tests used:
[1] = system: C. parapsilosis ATCC 22019; assay: Anti-Fungal Activity Assay (broth microtiter MIC), C. parapsilosis; format: cell-based, Candida parapsilosis; settings: Lodderomyces parapsilosis, ATCC22019, 48 h, 3 replicates; MIC recorded at 48 h; read-out: MIC C. parapsilosis ATCC 22019
In short: (§1)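 Candida strains were grown from frozen stock on Sabouraud dextrose agar overnight at 35° C, then suspended directly in RPMI 1640+MOPS and quantified against standard curves. Broth microdilution MIC plates followed CLSI M27-A3; MICs were read visually against growth control at 48 h, with a 24 h read added for soraphen.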

C. krusei ATCC 6258 = assay: Anti-Fungal Activity Assay (broth microtiter MIC), C. krusei; format: cell-based, Candida krusei; settings: Pichia kudriavzevii, ATCC6258, 48 h, 3 replicates; MIC recorded at 48 h; read-out: MIC C. krusei ATCC 6258
In short: as §1

Human ACC2 = Human ACC2 (Homo sapiens, UniProt O00763); assay: In vitro ACC2 inhibition assay (ADP-Glo), human ACC2; format: biochemical; settings: 5 nM ACC2, 20 μM ATP, 20 μM acetyl-CoA
Human ACC2, sequence (O00763 whole entry): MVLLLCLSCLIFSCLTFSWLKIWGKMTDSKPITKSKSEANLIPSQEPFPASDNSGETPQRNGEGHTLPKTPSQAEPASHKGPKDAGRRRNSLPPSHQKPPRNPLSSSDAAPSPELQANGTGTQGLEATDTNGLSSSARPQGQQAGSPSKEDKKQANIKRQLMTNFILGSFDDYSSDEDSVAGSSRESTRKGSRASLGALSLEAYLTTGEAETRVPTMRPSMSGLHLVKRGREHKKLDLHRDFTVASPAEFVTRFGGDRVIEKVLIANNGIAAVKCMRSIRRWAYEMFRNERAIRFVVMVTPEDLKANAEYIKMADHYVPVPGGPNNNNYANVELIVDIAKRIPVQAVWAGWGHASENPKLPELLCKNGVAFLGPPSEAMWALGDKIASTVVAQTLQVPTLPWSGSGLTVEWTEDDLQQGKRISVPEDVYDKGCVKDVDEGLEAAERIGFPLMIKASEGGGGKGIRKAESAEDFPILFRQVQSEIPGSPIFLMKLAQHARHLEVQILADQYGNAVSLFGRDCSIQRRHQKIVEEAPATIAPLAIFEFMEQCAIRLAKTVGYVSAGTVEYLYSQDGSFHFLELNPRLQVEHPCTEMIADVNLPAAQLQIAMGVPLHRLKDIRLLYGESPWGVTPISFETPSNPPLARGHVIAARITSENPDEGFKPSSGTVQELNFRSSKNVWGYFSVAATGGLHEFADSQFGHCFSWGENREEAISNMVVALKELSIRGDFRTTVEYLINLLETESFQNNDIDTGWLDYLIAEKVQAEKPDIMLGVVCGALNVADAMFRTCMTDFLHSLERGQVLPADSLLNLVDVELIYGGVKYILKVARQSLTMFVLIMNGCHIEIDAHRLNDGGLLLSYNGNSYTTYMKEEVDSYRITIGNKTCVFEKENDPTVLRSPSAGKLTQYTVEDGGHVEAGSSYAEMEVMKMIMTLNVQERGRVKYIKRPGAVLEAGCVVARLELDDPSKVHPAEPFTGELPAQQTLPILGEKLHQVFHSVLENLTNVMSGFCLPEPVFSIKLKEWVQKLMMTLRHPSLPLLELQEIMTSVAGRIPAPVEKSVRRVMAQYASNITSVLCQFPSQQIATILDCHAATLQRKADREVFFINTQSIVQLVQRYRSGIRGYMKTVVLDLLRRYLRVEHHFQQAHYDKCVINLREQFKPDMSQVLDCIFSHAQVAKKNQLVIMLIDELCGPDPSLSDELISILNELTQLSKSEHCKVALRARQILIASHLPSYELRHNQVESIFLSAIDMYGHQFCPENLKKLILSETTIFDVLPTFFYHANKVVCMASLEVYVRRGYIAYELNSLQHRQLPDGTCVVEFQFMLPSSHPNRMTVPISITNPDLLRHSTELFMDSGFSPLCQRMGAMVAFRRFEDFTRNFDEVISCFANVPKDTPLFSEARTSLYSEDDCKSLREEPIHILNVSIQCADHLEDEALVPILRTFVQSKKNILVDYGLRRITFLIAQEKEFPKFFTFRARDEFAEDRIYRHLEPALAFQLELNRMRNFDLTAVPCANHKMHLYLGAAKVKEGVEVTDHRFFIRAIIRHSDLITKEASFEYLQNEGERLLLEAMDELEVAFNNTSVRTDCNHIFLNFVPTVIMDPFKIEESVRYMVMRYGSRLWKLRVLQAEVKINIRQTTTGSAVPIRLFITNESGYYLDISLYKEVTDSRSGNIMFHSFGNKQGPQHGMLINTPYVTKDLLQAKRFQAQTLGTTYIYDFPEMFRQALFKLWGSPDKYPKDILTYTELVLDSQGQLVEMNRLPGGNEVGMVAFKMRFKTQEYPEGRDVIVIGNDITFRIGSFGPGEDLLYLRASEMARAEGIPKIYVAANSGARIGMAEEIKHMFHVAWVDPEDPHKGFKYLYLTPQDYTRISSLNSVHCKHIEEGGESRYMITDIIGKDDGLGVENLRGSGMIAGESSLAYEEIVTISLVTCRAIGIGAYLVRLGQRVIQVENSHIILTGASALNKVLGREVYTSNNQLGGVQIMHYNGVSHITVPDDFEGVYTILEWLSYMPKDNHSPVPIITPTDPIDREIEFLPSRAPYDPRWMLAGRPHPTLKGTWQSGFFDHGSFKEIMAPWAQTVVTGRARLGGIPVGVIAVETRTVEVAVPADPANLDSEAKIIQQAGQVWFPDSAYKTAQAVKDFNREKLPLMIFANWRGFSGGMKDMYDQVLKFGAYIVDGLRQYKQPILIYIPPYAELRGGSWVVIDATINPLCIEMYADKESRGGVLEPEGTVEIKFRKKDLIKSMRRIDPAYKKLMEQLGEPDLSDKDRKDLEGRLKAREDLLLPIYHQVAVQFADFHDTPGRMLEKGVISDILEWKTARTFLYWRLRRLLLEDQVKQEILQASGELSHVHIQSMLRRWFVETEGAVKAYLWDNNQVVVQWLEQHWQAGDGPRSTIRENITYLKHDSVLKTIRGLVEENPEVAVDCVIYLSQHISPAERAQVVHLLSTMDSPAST

Fungal ACC2 = Fungal ACC2 (UniProt Q00955); settings: read-out: Fungal ACC2 (IC50, in vitro ACC2 inhibition)
Fungal ACC2, sequence (Q00955 whole entry): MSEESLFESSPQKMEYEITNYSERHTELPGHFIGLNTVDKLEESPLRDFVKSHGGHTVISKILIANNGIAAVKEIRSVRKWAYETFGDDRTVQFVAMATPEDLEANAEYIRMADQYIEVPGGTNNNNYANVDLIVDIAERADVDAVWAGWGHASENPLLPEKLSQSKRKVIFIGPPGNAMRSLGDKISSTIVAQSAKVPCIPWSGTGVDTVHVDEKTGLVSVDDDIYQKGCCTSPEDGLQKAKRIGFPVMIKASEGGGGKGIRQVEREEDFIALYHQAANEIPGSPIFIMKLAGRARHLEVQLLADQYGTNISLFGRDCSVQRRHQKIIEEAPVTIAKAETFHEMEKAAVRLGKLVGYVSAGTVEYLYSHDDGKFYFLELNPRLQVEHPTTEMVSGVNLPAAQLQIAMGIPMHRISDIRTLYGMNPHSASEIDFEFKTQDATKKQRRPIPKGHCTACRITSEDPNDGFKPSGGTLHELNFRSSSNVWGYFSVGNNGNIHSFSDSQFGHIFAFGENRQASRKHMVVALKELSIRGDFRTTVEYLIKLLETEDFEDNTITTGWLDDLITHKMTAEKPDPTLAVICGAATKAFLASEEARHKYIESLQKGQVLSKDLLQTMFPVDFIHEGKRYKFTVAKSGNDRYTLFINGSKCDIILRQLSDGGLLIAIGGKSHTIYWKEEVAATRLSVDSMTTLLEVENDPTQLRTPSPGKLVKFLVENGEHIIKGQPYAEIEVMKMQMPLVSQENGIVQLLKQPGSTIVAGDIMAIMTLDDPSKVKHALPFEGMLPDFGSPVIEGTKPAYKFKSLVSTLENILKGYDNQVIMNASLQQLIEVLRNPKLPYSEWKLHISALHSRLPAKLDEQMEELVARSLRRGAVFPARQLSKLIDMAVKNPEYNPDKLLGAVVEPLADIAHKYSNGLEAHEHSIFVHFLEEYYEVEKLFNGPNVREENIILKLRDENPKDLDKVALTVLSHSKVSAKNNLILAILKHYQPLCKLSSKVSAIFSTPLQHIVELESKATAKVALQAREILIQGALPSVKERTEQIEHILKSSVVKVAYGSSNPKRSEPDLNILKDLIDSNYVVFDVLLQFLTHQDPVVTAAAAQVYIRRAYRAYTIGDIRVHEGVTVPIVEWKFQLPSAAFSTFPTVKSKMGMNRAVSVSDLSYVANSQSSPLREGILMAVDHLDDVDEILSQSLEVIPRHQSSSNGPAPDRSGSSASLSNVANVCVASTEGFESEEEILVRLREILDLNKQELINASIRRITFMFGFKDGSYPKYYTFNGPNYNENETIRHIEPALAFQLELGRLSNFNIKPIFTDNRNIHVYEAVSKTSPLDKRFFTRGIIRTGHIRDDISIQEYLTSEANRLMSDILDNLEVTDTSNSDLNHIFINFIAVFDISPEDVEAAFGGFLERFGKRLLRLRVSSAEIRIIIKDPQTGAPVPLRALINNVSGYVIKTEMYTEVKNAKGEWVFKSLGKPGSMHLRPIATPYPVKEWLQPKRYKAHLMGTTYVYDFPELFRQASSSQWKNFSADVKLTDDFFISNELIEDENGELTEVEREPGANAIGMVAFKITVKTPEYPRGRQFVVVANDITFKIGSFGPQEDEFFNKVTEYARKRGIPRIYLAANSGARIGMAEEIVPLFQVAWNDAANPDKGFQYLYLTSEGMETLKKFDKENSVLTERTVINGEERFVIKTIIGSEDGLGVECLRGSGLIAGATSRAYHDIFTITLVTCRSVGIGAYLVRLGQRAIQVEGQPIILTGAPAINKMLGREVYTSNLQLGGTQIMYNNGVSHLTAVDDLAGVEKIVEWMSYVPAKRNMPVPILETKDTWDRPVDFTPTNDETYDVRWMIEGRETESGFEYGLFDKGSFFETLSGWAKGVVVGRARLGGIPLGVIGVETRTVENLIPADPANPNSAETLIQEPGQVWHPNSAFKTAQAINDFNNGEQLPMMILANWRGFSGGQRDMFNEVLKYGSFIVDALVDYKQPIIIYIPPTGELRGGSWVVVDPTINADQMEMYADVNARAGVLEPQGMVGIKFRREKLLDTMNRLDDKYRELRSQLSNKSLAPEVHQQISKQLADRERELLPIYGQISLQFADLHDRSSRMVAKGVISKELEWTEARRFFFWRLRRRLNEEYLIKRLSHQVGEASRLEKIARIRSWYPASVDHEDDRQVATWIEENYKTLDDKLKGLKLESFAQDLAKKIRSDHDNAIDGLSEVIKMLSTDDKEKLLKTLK

C. albicans ATCC 90028 = assay: Anti-Fungal Activity Assay (broth microtiter MIC), C. albicans; format: cell-based, Candida albicans; settings: Candida albicans, ATCC90028, 48 h, 3 replicates; MIC recorded at 48 h; read-out: MIC C. albicans ATCC 90028
In short: as §1

SMILES | MIC [1] | MIC (C. krusei ATCC 6258) | IC50 (Human ACC2) | IC50 (Fungal ACC2) | MIC (C. albicans ATCC 90028)
COc1ccc(F)cc1[C@H](Cn1c(=O)n([C@H]2CCN(C(=O)C(C)C)C2)c(=O)c2c(C)c(-n3nccn3)sc21)OCCO [Compound I-97, 1-((R)-2-(5-fluoro-2-methoxyphenyl)-2-(2-hydroxy-ethoxy)ethyl)-3-((S)-1-isobutyrylpyrrolidin-3-yl)-5-methyl-6-(2H-1,2,3-triazol-2-yl)thieno[2,3-d]pyrimidine-2,4(1H,3H)-dione] | 2.1 to 4 µg/mL (≈ 3.5 to 6.66 µM) | 2.1 to 4 µg/mL (≈ 3.5 to 6.66 µM) | 10 to 100 nM | 0.7 to 2 nM | 2.1 to 4 µg/mL (≈ 3.5 to 6.66 µM)
COCCO[C@@H](Cn1c(=O)n(CCN2CCCCC2=O)c(=O)c2c(C)c(-n3nccn3)sc21)c1cc(F)ccc1OC [Compound I-98, (R)-1-(2-(S-fluoro-2-methoxyphenyl)-2-(2-methoxy-ethoxy)ethyl)-5-methyl-3-(2-(2-oxopiperidin-1-yl)ethyl)-6-(2H-1,2,3-triazol-2-yl)thieno[2,3-d]pyrimidine-2,4(1H3H)-dione] | 2.1 to 4 µg/mL (≈ 3.5 to 6.66 µM) | 2.1 to 4 µg/mL (≈ 3.5 to 6.66 µM) | 10 to 100 nM | 2 to 10 nM | 2.1 to 4 µg/mL (≈ 3.5 to 6.66 µM)
COCCO[C@@H](Cn1c(=O)n(CCN2CCCC2=O)c(=O)c2c(C)c(-n3nccn3)sc21)c1cc(F)ccc1OC [Compound I-99, (R)-1-(2-(5-fluoro-2-methoxyphenyl)-2-(2-methoxy-ethoxy)ethyl)-5-methyl-3-(2-(2-oxopyrrolidin-1-yl)ethyl)-6-(2H-1,2,3-triazol-2-yl)thieno[2,3-d]pyrimidine-2,4(1H,3H)-dione] | 2.1 to 4 µg/mL (≈ 3.58 to 6.82 µM) | 2.1 to 4 µg/mL (≈ 3.58 to 6.82 µM) | 10 to 100 nM | 0.7 to 2 nM | 2.1 to 4 µg/mL (≈ 3.58 to 6.82 µM)
COCCO[C@@H](Cn1c(=O)n(CCN2CCCNC2=O)c(=O)c2c(C)c(-n3nccn3)sc21)c1cc(F)ccc1OC [Compound I-100, (R)-1-(2-(5-fluoro-2-methoxyphenyl)-2-(2-methoxy-ethoxy)ethyl)-5-methyl-3-(2-(2-oxotetrahydropyrimidin-1 (2H)-yl)ethyl)-6-(2H-1,2,3-triazol-2-yl)thieno[2,3-d]pyrimidine-2,4(1H,3H)-dione] | 2.1 to 4 µg/mL (≈ 3.49 to 6.65 µM) | 2.1 to 4 µg/mL (≈ 3.49 to 6.65 µM) | 10 to 100 nM | 2 to 10 nM | 2.1 to 4 µg/mL (≈ 3.49 to 6.65 µM)
COCCO[C@@H](COc1nc2sc(-n3nccn3)c(C)c2c(=O)n1[C@@H]1CCN(C(=O)C(C)C)C1)c1cc(F)ccc1OC [Compound I-101, 2-((R)-2-(5-fluoro-2-methoxyphenyl)-2-(2-methoxy-ethoxy)ethoxy)-3-((R)-1-isobutyrylpyrrolidin-3-yl)-5-methyl-6-(2H-1,2,3-triazol-2-yl)thieno[2,3-d]pyrimidin-4(3H)-one] | 2.1 to 4 µg/mL (≈ 3.42 to 6.51 µM) | 2.1 to 4 µg/mL (≈ 3.42 to 6.51 µM) | > 1000 nM | 10 to 100 nM | 2.1 to 4 µg/mL (≈ 3.42 to 6.51 µM)
COc1ccc(F)cc1[C@H](COc1nc2sc(-n3nccn3)c(C)c2c(=O)n1[C@H]1CNC(=O)C1)OCCO [Compound I-102, 2-((R)-2-(5-fluoro-2-methoxyphenyl)-2-(2-hydroxy-ethoxy)ethoxy)-5-methyl-3-((R)-5-oxopyrrolidin-3-yl)-6-(2H-1,2,3-triazol-2-yl)thieno[2,3-d]pyrimidin-4(3H)-one] | 2.1 to 4 µg/mL (≈ 3.86 to 7.35 µM) | 2.1 to 4 µg/mL (≈ 3.86 to 7.35 µM) | > 1000 nM | 10 to 100 nM | 2.1 to 4 µg/mL (≈ 3.86 to 7.35 µM)
COc1ccc(F)cc1[C@H](COc1nc2sc(-n3nccn3)c(C)c2c(=O)n1[C@@H]1CNC(=O)C1)OCCO [Compound I-103, 2-((R)-2-(5-fluoro-2-methoxyphenyl)-2-(2-hydroxy-ethoxy)ethoxy)-5-methyl-3-((S)-5-oxopyrrolidin-3-yl)-6-(2H-1,2,3-triazol-2-yl)thieno[2,3-d]pyrimidin-4(3H)-one] | 2.1 to 4 µg/mL (≈ 3.86 to 7.35 µM) | 2.1 to 4 µg/mL (≈ 3.86 to 7.35 µM) | > 1000 nM | 10 to 100 nM | 2.1 to 4 µg/mL (≈ 3.86 to 7.35 µM)
COCCO[C@@H](Cn1c(=O)n([C@H]2CCN(C(C)C)C2=O)c(=O)c2c(C)c(-n3nccn3)sc21)c1cc(F)ccc1OC [Compound I-104, 1-((R)-2-(5-fluoro-2-methoxyphenyl)-2-(2-methoxy-ethoxy)ethyl)-3-((S)-1-isopropyl-2-oxopyrrolidin-3-yl)-5-methyl-6-(2H-1,2,3-triazol-2-yl)thieno[2,3-d]pyrimidine-2,4(1H,3H)-dione] | 2.1 to 4 µg/mL (≈ 3.5 to 6.66 µM) | 2.1 to 4 µg/mL (≈ 3.5 to 6.66 µM) | 10 to 100 nM | 0.7 to 2 nM | 2.1 to 4 µg/mL (≈ 3.5 to 6.66 µM)
